From PubChem BioAssay AID330 (DTP/NCI, 2004)
Values joined by “and” are separate entries in the source; they are usually repeats but may differ in a detail not shown here. Equal entries are not always repeated. Inconclusive results and toxic doses are left out.

System: P388 leukemia ip, CD2F1 mice, survival T/C
Experiment: NCI In Vivo Anticancer Drug Screen. Data for tumor model P388 Leukemia (intraperitoneal) in CD2F1 (CDF1) mice
Settings: endpoint: median survival time, higher = longer survival
Outline: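 Mice carrying the transplanted tumor received test compound or vehicle. Survival was recorded in each group, and the value is the treated-group measurement divided by that of the vehicle-treated control group.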

[1] = dose: 50.0 mg/kg/injection, schedule: Q01DX005 (ip), vehicle: saline with Tween-80
[2] = dose: 100.0 mg/kg/injection, schedule: Q01DX005 (ip), vehicle: saline with Tween-80
[3] = dose: 200.0 mg/kg/injection, schedule: Q01DX005 (ip), vehicle: saline with Tween-80
[4] = dose: 50.0 mg/kg/injection, schedule: Q01DX005 (ip), vehicle: Klucel (hydroxypropylcellulose) (HPC)
[5] = dose: 100.0 mg/kg/injection, schedule: Q01DX005 (ip), vehicle: Klucel (hydroxypropylcellulose) (HPC)
[6] = dose: 200.0 mg/kg/injection, schedule: Q01DX005 (ip), vehicle: Klucel (hydroxypropylcellulose) (HPC)
[7] = dose: 60.0 mg/kg/injection, schedule: Q01DX005 (ip), vehicle: Klucel (hydroxypropylcellulose) (HPC)
[8] = dose: 120.0 mg/kg/injection, schedule: Q01DX005 (ip), vehicle: Klucel (hydroxypropylcellulose) (HPC)
[9] = dose: 240.0 mg/kg/injection, schedule: Q01DX005 (ip), vehicle: Klucel (hydroxypropylcellulose) (HPC)
[10] = dose: 50.0 mg/kg/injection, schedule: Q01DX009 (ip), vehicle: saline with Tween-80
[11] = dose: 100.0 mg/kg/injection, schedule: Q01DX009 (ip), vehicle: saline with Tween-80
[12] = dose: 25.0 mg/kg/injection, schedule: Q01DX005 (ip), vehicle: Klucel (hydroxypropylcellulose) (HPC)
[13] = dose: 200.0 mg/kg/injection, schedule: Q01DX009 (ip), vehicle: saline with Tween-80
[14] = dose: 400.0 mg/kg/injection, schedule: Q01DX009 (ip), vehicle: saline with Tween-80

O=NN(C(=O)NCCN1CCOCC1)C1CCCCC1
T/C (dose: 25.0 mg/kg/injection, schedule: Q01DX001 (ip), vehicle: water): 115 % of control | T/C (dose: 50.0 mg/kg/injection, schedule: Q01DX001 (ip), vehicle: water): 100 % of control | T/C (dose: 100.0 mg/kg/injection, schedule: Q01DX001 (ip), vehicle: water): 103 % of control | T/C (dose: 200.0 mg/kg/injection, schedule: Q01DX001 (ip), vehicle: water): 111 % of control | T/C (dose: 400.0 mg/kg/injection, schedule: Q01DX001 (ip), vehicle: water): 117 % of control

COC1=C(OC)C(=O)C(SCCCCCCC2CCCCC2)=CC1=O
T/C (dose: 16.0 mg/kg/injection, schedule: Q01DX009 (ip), vehicle: Klucel (hydroxypropylcellulose) (HPC)): 96 % of control | T/C (dose: 32.0 mg/kg/injection, schedule: Q01DX009 (ip), vehicle: Klucel (hydroxypropylcellulose) (HPC)): 92 % of control

CCC1(/C=N/NC(N)=O)NC(=O)NC1=O (configuration not stated)
T/C [1]: 93 % of control | T/C [2]: 96 % of control | T/C [3]: 88 % of control

c1ccc(C2=N[C@@H](N3CCCCC3)[C@H](N3CCCCC3)N2c2ccccc2)cc1
T/C [4]: 105 % of control | T/C [5]: 100 % of control | T/C [6]: 98 % of control

CC1Cn2c(nnc2-c2ccccc2O)S1 (configuration not stated)
T/C (dose: 60.0 mg/kg/injection, schedule: Q01DX005 (ip), vehicle: saline with Tween-80): 96 % of control | T/C (dose: 120.0 mg/kg/injection, schedule: Q01DX005 (ip), vehicle: saline with Tween-80): 100 % of control | T/C (dose: 240.0 mg/kg/injection, schedule: Q01DX005 (ip), vehicle: saline with Tween-80): 101 % of control

CC(C)C(NC(=O)OC(C)(C)C)C(=O)NC(CC(=O)OCc1ccccc1)C(=O)OCc1ccccc1 (configuration not stated)
T/C [2]: 88 % of control | T/C [3]: 91 % of control | T/C (dose: 400.0 mg/kg/injection, schedule: Q01DX005 (ip), vehicle: saline with Tween-80): 88 % of control

CSC(=S)/N=c1\ccc(C)cn1C
T/C (dose: 12.5 mg/kg/injection, schedule: Q04DX002 (ip), vehicle: saline with Tween-80): 100 % of control | T/C (dose: 25.0 mg/kg/injection, schedule: Q04DX002 (ip), vehicle: saline with Tween-80): 100 % of control | T/C (dose: 50.0 mg/kg/injection, schedule: Q04DX002 (ip), vehicle: saline with Tween-80): 99 % of control

NC(=O)c1nnn(Cc2cc(Cl)c(C(=O)c3ccc(Cl)cc3)c(Cl)c2)c1N
T/C [7]: 103 % of control | T/C [8]: 103 % of control | T/C [9]: 115 % of control | T/C (dose: 480.0 mg/kg/injection, schedule: Q01DX005 (ip), vehicle: Klucel (hydroxypropylcellulose) (HPC)): 119 % of control

O=NN(Cc1ccc(Cl)cc1)C(C(=O)O)c1ccccc1 (configuration not stated)
T/C (dose: 60.0 mg/kg/injection, schedule: Q01DX005 (ip), vehicle: Klucel + Tween-80): 103 % of control | T/C (dose: 120.0 mg/kg/injection, schedule: Q01DX005 (ip), vehicle: Klucel + Tween-80): 103 % of control

CCCCN(CCCC)CCC(O)c1cc2c(Cl)cc(Cl)cc2c2cc(C(F)(F)F)ccc12 (configuration not stated)
T/C [10]: 100 % of control | T/C [11]: 96 % of control

CC(=NCCCCN=C(C)c1cc(C)cc(Br)c1O)c1cc(C)cc(Br)c1O.[Co]
T/C (dose: 6.25 mg/kg/injection, schedule: Q01DX005 (ip), vehicle: Klucel (hydroxypropylcellulose) (HPC)): 99 % of control and 104 % of control | T/C (dose: 12.5 mg/kg/injection, schedule: Q01DX005 (ip), vehicle: Klucel (hydroxypropylcellulose) (HPC)): 100 % of control and 106 % of control | T/C [12]: 101 % of control and 109 % of control and 283 % of control | T/C [4]: 98 % of control and 109 % of control and 283 % of control | T/C [5]: 106 % of control and 97 % of control | T/C [6]: 97 % of control

CC(C)Cc1c[nH]c(=O)[nH]c1=O
T/C [11]: 95 % of control | T/C [13]: 95 % of control | T/C [14]: 91 % of control

CCCCCCCCCCC(OC(C)=O)C1CCC(C2CCC(C(O)CCCCCCCCCCCCC3C=C(C)OC3=O)O2)O1 (configuration not stated)
T/C (dose: 0.25 mg/kg/injection, schedule: Q01DX005 (ip), vehicle: water): 111 % of control | T/C (dose: 0.5 mg/kg/injection, schedule: Q01DX005 (ip), vehicle: water): 124 % of control

COC(=O)CCCCCC(O)C1CCC2OC(=O)CC21C (configuration not stated)
T/C [11]: 118 % of control | T/C [13]: 100 % of control | T/C [14]: 100 % of control

CC(C)(C)N1CC1CNC(=O)C(=O)NCC1CN1C(C)(C)C (configuration not stated)
T/C (dose: 3.12 mg/kg/injection, schedule: Q01DX009 (ip), vehicle: saline with Tween-80): 165 % of control | T/C (dose: 6.25 mg/kg/injection, schedule: Q01DX009 (ip), vehicle: saline with Tween-80): 194 % of control and 203 % of control | T/C (dose: 12.5 mg/kg/injection, schedule: Q01DX009 (ip), vehicle: saline with Tween-80): 256 % of control and 277 % of control | T/C (dose: 25.0 mg/kg/injection, schedule: Q01DX009 (ip), vehicle: saline with Tween-80): 177 % of control

CC(C)C(=O)CCC(C)C1CCC2(C)C3CC=C4C(CCC(O)C4(C)C)C3(C)C(=O)CC12C (configuration not stated)
T/C (dose: 100.0 mg/kg/injection, schedule: Q04DX002 (ip), vehicle: saline): 100 % of control | T/C (dose: 200.0 mg/kg/injection, schedule: Q04DX002 (ip), vehicle: saline): 98 % of control | T/C (dose: 400.0 mg/kg/injection, schedule: Q04DX002 (ip), vehicle: saline): 99 % of control

C=CCN(CC=C)C1C(O)CCOC1OC (configuration not stated)
T/C (dose: 60.0 mg/kg/injection, schedule: Q01DX005 (ip), vehicle: saline): 109 % of control and 101 % of control | T/C (dose: 120.0 mg/kg/injection, schedule: Q01DX005 (ip), vehicle: saline): 107 % of control and 103 % of control | T/C (dose: 240.0 mg/kg/injection, schedule: Q01DX005 (ip), vehicle: saline): 109 % of control and 102 % of control

COC1=C(OC)C(=O)C2=C(OCCO2)C1=O
T/C (dose: 25.0 mg/kg/injection, schedule: Q01DX001 (ip), vehicle: saline with Tween-80): 109 % of control | T/C (dose: 50.0 mg/kg/injection, schedule: Q01DX001 (ip), vehicle: saline with Tween-80): 106 % of control | T/C (dose: 100.0 mg/kg/injection, schedule: Q01DX001 (ip), vehicle: saline with Tween-80): 107 % of control

O=C(O)C(CO)Nc1ncnc2nc[nH]c12 (configuration not stated)
T/C [4]: 106 % of control | T/C [5]: 109 % of control | T/C [6]: 109 % of control

O=C1S/C(=C2\C(=O)N(CN3CCCCC3)c3ccc(Br)cc32)C(=O)N1CN1CCCCC1
T/C [7]: 100 % of control | T/C [8]: 101 % of control | T/C [9]: 99 % of control

O=C(Nc1ccc(Cl)c(Cl)c1)Sc1ccc(O)cc1
T/C (dose: 12.5 mg/kg/injection, schedule: Q01DX009 (ip), vehicle: saline): 91 % of control | T/C (dose: 25.0 mg/kg/injection, schedule: Q01DX009 (ip), vehicle: saline): 91 % of control | T/C [10]: 96 % of control | T/C (dose: 50.0 mg/kg/injection, schedule: Q01DX009 (ip), vehicle: saline): 117 % of control | T/C [11]: 91 % of control

Cc1nc2cc(C(=O)NC=O)c3n[nH]nc3c2n1C
T/C (dose: 4.0 mg/kg/injection, schedule: Q01DX005 (ip), vehicle: DMSO): 98 % of control | T/C (dose: 8.0 mg/kg/injection, schedule: Q01DX005 (ip), vehicle: DMSO): 103 % of control | T/C (dose: 16.0 mg/kg/injection, schedule: Q01DX005 (ip), vehicle: DMSO): 94 % of control | T/C (dose: 32.0 mg/kg/injection, schedule: Q01DX005 (ip), vehicle: DMSO): 93 % of control

CC(C)(CNCc1ccccc1)COS(=O)(=O)O
T/C (dose: 100.0 mg/kg/injection, schedule: Q01DX001 (ip), vehicle: saline): 110 % of control | T/C (dose: 200.0 mg/kg/injection, schedule: Q01DX001 (ip), vehicle: saline): 105 % of control | T/C (dose: 400.0 mg/kg/injection, schedule: Q01DX001 (ip), vehicle: saline): 100 % of control

CCN(CC)CCOC(=O)C(OCCC(C)C)(c1ccccc1)c1ccccc1
T/C [4]: 113 % of control | T/C [5]: 113 % of control

N#Cc1c(O)c(-c2ccccc2)c(=O)n2c1[nH]c1ccccc12
T/C [4]: 101 % of control | T/C [5]: 104 % of control | T/C [6]: 113 % of control

O=S(=O)(O)OOS(=O)(=O)O
T/C (dose: 50.0 mg/kg/injection, schedule: Q01DX009 (ip), vehicle: Klucel (hydroxypropylcellulose) (HPC)): 100 % of control | T/C (dose: 100.0 mg/kg/injection, schedule: Q01DX009 (ip), vehicle: Klucel (hydroxypropylcellulose) (HPC)): 87 % of control

c1ccc(CCn2c(-c3ccccn3)nc3ccccc32)nc1
T/C [12]: 105 % of control | T/C [4]: 99 % of control | T/C [5]: 99 % of control

O=C1CN(Cc2cccc(Cl)c2)CC(=O)N2Cc3ccccc3CN12
T/C [1]: 106 % of control | T/C [2]: 98 % of control
